According to ChEMBL document CHEMBL4680271, “COVID-19: Drug Targets and Potential Treatments” (J Med Chem, 2020):

Columns and labels:
[1] = Cytotoxicity against African green monkey Vero E6 cells by CCK8 assay; assay type: cell-based, Vero C1008; details: chlorocebus sabaeus
[2] = Inhibition of SARS-CoV2 3C-like protease expressed in Escherichia coli BL21 (DE3) cells using Mca-AVLQSGFR-K(Dnp)K as substrate by fluorescence method; set-up: species or system Severe acute respiratory syndrome coronavirus 2
[3] = Inhibition of SARS-CoV 3C-like protease expressed in Escherichia coli BL21 using Dabcyl-KTSAVLQSGFRKME-Edans fluorogenic peptide as substrate by fluorometric assay; set-up: species or system Severe acute respiratory syndrome-related coronavirus
[4] = Inhibition of MERS-CoV 3C-like protease expressed in Escherichia coli BL21 using Dabcyl-KTSAVLQSGFRKME-Edans fluorogenic peptide as substrate by fluorometric assay; set-up: species or system Middle East respiratory syndrome-related coronavirus
[5] = Inhibition of SARS-CoV2 3C-like protease expressed in Escherichia coli BL21-Gold (DE3) cells using Dabcyl-KTSAVLQSGFRKM-E(Edans)-NH2 as substrate by FRET-based cleavage assay; set-up: species or system Severe acute respiratory syndrome coronavirus 2
[6] = Inhibition of SARS-CoV 3C-like protease expressed in African green monkey Vero cells using SAVLQSGFRK as substrate by dual luciferase reporter assay; assay type: cell-based, Severe acute respiratory syndrome-related coronavirus
[7] = Inhibition of C-terminal 6His-tagged SARS-CoV 3C-like protease expressed in Escherichia coli BL21 (DE3) CodonPlus-RIL using 12-mer fluorogenic peptide Dabcyl-KNSTLQSGLRKE-Edans as substrate incubated for 60 mins by fluorescence method; set-up: species or system Severe acute respiratory syndrome-related coronavirus
[8] = Inhibition of C-terminal 6His-tagged SARS-CoV papain-like protease expressed in Escherichia coli BL21 (DE3) CodonPlus-RIL using Arg-Leu-Arg-Gly-Gly-AMC as substrate by fluorescence method; set-up: species or system Severe acute respiratory syndrome-related coronavirus

NC(=O)c1nc(F)c[nH]c1=O
CC50 [1]: > 400 µM

Cn1sc(=O)n(Cc2ccccc2)c1=O
IC50 [2]: 2500 nM

O=C[C@H](CC1CCNC1=O)NC(=O)[C@@H](Cc1ccccc1)NC(=O)/C=C/c1ccc(Cl)cc1F (stereo not given in full)
IC50 [3]: 200 nM | IC50 [4]: 1170 nM

CC(C)(C)CC(=O)Nc1cccc([C@@H](CC2CC2)C(=O)N[C@@H](CC2CCNC2=O)C(=O)C(=O)NCc2ccccc2)c1O (stereo not given in full)
IC50 [5]: 670 nM

COc1ccc(C(=O)/C=C/c2ccc(O)cc2)c(O)c1CC(O)C(C)=O (stereo not given)
IC50 [6]: 7.1 µM

O=C(/C=C/CCc1ccc(O)c(O)c1)CCc1ccc(O)c(O)c1 [DEHYDROHIRSUTANONOL]
IC50 [7]: 36.2 µM | IC50 [8]: 4.1 µM

Nc1nc2c(ncn2CCC(CO)CO)c(=O)[nH]1 [PENCICLOVIR]
CC50 [1]: > 400 µM

NC(=O)c1ncn([C@@H]2O[C@H](CO)[C@@H](O)[C@H]2O)n1 [RIBAVIRIN]
CC50 [1]: > 400 µM
